# Molecular target: CBL-B protein (Homo sapiens, UniProt Q13191)
# Assay: CBL-B binding experiment (Streptavidin-Tb cryptate / Ligand L1 displacement)
# Conditions: 8 nM CBL-B protein, 25° C., 60 minutes; Ki=Relative IC50/2
# Method: The reaction system mainly includes 1× buffer, 20 mM HEPES pH 7.5, 150 mM NaCl, 0.01% Triton X-100, 0.5 mM TCEP, and 0.1% ug/ml BSA. The compound is continuously diluted with DMSO for 10 concentration points, and 150 nL is transferred to the experimental plate. The experimental reaction begins after adding 8 nM of CBL-B protein and the reaction is carried out at 25° C. for 60 minutes. […] After an additional 60 minutes of incubation at room temperature, the experimental plate is read using an EnVision plate. The luminescence signal values were converted to percentage inhibition rates. Inhibition %=(Sample value−Maximum value)/(Minimum value−Maximum value)×100. The minimum value refers to the measured value in the wells without CBL-B protein but with DMSO and Ligand, while the maximum value refers to the measured value in the wells with DMSO, CBL-B protein, and Ligand. The IC50 values are calculated by XLFit (version 5.3.1.3) in Excel. Equation: Y=Bottom+(Top−Bottom)/(1+(IC50/X)^HillSlope); Ki=Relative IC50/2.
# Chain of CBL-B protein (Q13191 whole entry): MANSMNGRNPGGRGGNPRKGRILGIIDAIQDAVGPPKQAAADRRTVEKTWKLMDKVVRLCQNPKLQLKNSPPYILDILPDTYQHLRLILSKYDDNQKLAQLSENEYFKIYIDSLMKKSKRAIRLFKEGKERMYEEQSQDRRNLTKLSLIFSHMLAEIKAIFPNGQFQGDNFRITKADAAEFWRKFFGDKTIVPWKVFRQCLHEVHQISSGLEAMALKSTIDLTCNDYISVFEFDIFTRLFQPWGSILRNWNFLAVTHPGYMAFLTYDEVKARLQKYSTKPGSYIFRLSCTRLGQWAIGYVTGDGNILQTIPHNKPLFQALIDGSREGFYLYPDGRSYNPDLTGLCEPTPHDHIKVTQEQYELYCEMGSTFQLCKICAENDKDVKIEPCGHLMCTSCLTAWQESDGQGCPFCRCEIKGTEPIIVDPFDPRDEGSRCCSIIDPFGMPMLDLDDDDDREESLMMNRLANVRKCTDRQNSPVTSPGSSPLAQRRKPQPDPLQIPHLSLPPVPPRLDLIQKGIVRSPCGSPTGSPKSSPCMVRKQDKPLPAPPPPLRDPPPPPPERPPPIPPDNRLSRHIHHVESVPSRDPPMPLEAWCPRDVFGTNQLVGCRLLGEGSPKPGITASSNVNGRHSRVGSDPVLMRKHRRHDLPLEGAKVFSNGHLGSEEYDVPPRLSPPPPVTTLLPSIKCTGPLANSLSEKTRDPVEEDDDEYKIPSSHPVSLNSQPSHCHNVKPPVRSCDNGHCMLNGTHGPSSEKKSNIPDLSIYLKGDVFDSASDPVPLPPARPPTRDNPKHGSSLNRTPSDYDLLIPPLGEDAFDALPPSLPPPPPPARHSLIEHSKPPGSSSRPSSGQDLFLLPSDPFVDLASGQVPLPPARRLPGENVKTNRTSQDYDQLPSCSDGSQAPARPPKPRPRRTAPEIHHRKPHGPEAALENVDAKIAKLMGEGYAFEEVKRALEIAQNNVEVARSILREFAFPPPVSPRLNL
row,Structure (SMILES),Ki
1,"C[C@H]1CCCN(Cc2cc3c(C(F)(F)F)cn(-c4ccc([C@]5(c6nncn6C)C[C@@H](C)C5)s4)c(=O)c3[nH]2)C1 [Compound T073, 6-(5-((1r,3S)-3-methyl-1-(4-methyl-4H-1,2,4-triazol-3-yl)cyclobutyl)thiophen-2-yl)-2-(((S)-3-methylpiperidin-1-yl)methyl)-4-(trifluoromethyl)-1,6-dihydro-7H-pyrrolo[2,3-c]pyridin-7-one]",< 50 nM
2,"Cn1cnnc1C1(c2cccc(-n3cc(C(F)(F)F)c4cc(CN5CCC(F)(F)CC5)[nH]c4c3=O)c2)CCC1 [Compound T075, 2-[(4,4-difluoro-1-piperidyl)methyl]-6-[3-[1-(4-methyl-1,2,4-triazol-3-yl)cyclobutyl]phenyl]-4-(trifluoromethyl)-1H-pyrrolo[2,3-c]pyridin-7-one]",< 50 nM
3,"C[C@H]1CCCN(Cc2cc3c(C(F)(F)F)cn(-c4cccc(-c5ccccc5-c5nncn5C)c4)c(=O)c3[nH]2)C1 [Compound T076, 2-[[(3S)-3-methyl-1-piperidyl]methyl]-6-[3-[2-(4-methyl-1,2,4-triazol-3-yl)phenyl]phenyl]-4-(trifluoromethyl)-1H-pyrrolo[2,3-c]pyridin-7-one]",< 50 nM
4,"C[C@H]1CCCN(Cc2cc3c(S(C)(=O)=O)cn(-c4cccc(C5(Cc6nncn6C)COC5)c4)c(=O)c3[nH]2)C1 [Compound T089, 2-[[(3S)-3-methyl-1-piperidyl]methyl]-4-methylsulfonyl-6-[3-[3-[(4-methyl-1,2,4-triazol-3-yl)methyl]oxetan-3-yl]phenyl]-1H-pyrrolo[2,3-c]pyridin-7-one]",< 50 nM
5,"CC(C)C1CN(C)CCN1Cc1cc2c(C3CC3)cn(-c3cccc([C@]4(c5nncn5C)C[C@@H](C)C4)c3)c(=O)c2[nH]1 (stereo partly shown) [Compound T094, 4-cyclopropyl-2-((2-isopropyl-4-methylpiperazin-1-yl)methyl)-6-(3-((1s,3s)-3-methyl-1-(4-methyl-4H-1,2,4-triazol-3-yl)cyclobutyl)phenyl)-1,6-dihydro-7H-pyrrolo[2,3-c]pyridin-7-one]",< 50 nM
6,"CC(C)[C@@H]1CN(C)CCN1Cc1cc2c(C3CC3)cn(-c3cccc([C@]4(c5nncn5C)C[C@@H](C)C4)c3)c(=O)c2[nH]1 [Compound T095, 4-cyclopropyl-2-(((R)-2-isopropyl-4-methylpiperazin-1-yl)methyl)-6-(3-((1s,3S)-3-methyl-1-(4-methyl-4H-1,2,4-triazol-3-yl)cyclobutyl)phenyl)-1,6-dihydro-7H-pyrrolo[2,3-c]pyridin-7-one]",< 50 nM
7,"CC(C)CN(Cc1cc2c(C(F)(F)F)cn(-c3cccc(C4(c5nncn5C)CCC4)c3)c(=O)c2[nH]1)CC(C)C [Compound T098, 2-[(diisobutylamino)methyl]-6-[3-[1-(4-methyl-1,2,4-triazol-3-yl)cyclobutyl]phenyl]-4-(trifluoromethyl)-1H-pyrrolo[2,3-c]pyridin-7-one]",< 50 nM
8,"Cn1cnnc1C1(c2cccc(-n3cc(C(F)(F)F)c4cc(CN5CC(F)CC(CO)C5)[nH]c4c3=O)c2)CCC1 (stereo not shown) [Compound T106, 2-[[3-fluoro-5-(hydroxymethyl)-1-piperidyl]methyl]-6-[3-[1-(4-methyl-1,2,4-triazol-3-yl)cyclobutyl]phenyl]-4-(trifluoromethyl)-1H-pyrrolo[2,3-c]pyridin-7-one]",< 50 nM
9,"CO[C@@H]1CCN(Cc2cc3c(C(F)(F)F)cn(-c4cccc(C5(c6nncn6C)CCC5)c4)c(=O)c3[nH]2)C[C@@H]1F [Compound T107, 2-(((3S,4R)-3-fluoro-4-methoxypiperidin-1-yl)methyl)-6-(3-(1-(4-methyl-4H-1,2,4-triazol-3-yl)cyclobutyl)phenyl)-4-(trifluoromethyl)-1,6-dihydro-7H-pyrrolo[2,3-c]pyridin-7-one]",< 50 nM

# Further lines, results first:
row,Ki,Structure (SMILES)
1,< 50 nM,"Cn1cnnc1C1(c2cccc(-n3cc(C(F)(F)F)c4cc(CN5CCC[C@@](C)(O)C5)[nH]c4c3=O)c2)CCC1 [Compound T065, 2-[[(3R)-3-hydroxy-3-methyl-1-piperidyl]methyl]-6-[3-[1-(4-methyl-1,2,4-triazol-3-yl)cyclobutyl]phenyl]-4-(trifluoromethyl)-1H-pyrrolo[2,3-c]pyridin-7-one]"
2,< 50 nM,"Cn1cnnc1C1(c2cccc(-n3cc(C(F)(F)F)c4cc(CN5CC[C@@H](O)[C@@H](F)C5)[nH]c4c3=O)c2)CCC1 [Compound T072, 2-(((3 S,4R)-3-fluoro-4-hydroxypiperidin-1-yl)methyl)-6-(3-(1-(4-methyl-4H-1,2,4-triazol-3-yl)cyclobutyl)phenyl)-4-(trifluoromethyl)-1,6-dihydro-7H-pyrrolo[2,3-c]pyridin-7-one]"
3,< 50 nM,"C[C@H]1CCCN(Cc2cc3c(C(F)(F)F)cn(-c4ccc([C@]5(c6nncn6C)C[C@H](C)C5)s4)c(=O)c3[nH]2)C1 [Compound T074, 6-(5-((1s,3R)-3-methyl-1-(4-methyl-4H-1,2,4-triazol-3-yl)cyclobutyl)thiophen-2-yl)-2-(((S)-3-methylpiperidin-1-yl)methyl)-4-(trifluoromethyl)-1,6-dihydro-7H-pyrrolo[2,3-c]pyridin-7-one]"
4,< 50 nM,"C[C@@H]1CN(Cc2cc3c(C4CC4)cn(-c4cccc(C5(Cc6nncn6C)COC5)c4)c(=O)c3[nH]2)CCC1(F)F [Compound T078, (R)-4-cyclopropyl-2-((4,4-difluoro-3-methylpiperidin-1-yl)methyl)-6-(3-(3-((4-methyl-4H-1,2,4-triazol-3-yl)methyl)oxetan-3-yl)phenyl)-1,6-dihydro-7H-pyrrolo[2,3-c]pyridin-7-one]"
5,< 50 nM,"C[C@H]1CN(Cc2cc3c(C4CC4)cn(-c4cccc(C5(Cc6nncn6C)COC5)c4)c(=O)c3[nH]2)CCC1(F)F [Compound T079, (S)-4-cyclopropyl-2-((4,4-difluoro-3-methylpiperidin-1-yl)methyl)-6-(3-(3-((4-methyl-4H-1,2,4-triazol-3-yl)methyl)oxetan-3-yl)phenyl)-1,6-dihydro-7H-pyrrolo[2,3-c]pyridin-7-one]"
6,< 50 nM,"Cn1cnnc1C1(c2cccc(-n3cc(C(F)(F)F)c4cc(CN5CCC[C@H](CC#N)C5)[nH]c4c3=O)c2)CCC1 [Compound T081, (R)-2-(1-((6-(3-(1-(4-methyl-4H-1,2,4-triazol-3-yl)cyclobutyl)phenyl)-7-oxo-4-(trifluoromethyl)-6,7-dihydro-1H-pyrrolo[2,3-c]pyridin-2-yl)methyl)piperidin-3-yl)acetonitrile]"
7,< 50 nM,"C[C@H]1CCCN(Cc2cc3c(Br)cn(-c4cccc(C5(Cc6nncn6C)COC5)c4)c(=O)c3[nH]2)C1 [Compound T090, (S)-4-bromo-6-(3-(3-((4-methyl-4H-1,2,4-triazol-3-yl)methyl)oxetan-3-yl)phenyl)-2-((3-methylpiperidin-1-yl)methyl)-1,6-dihydro-7H-pyrrolo[2,3-c]pyridin-7-one]"
8,< 50 nM,"COCC1(NCc2cc3c(C(F)(F)F)cn(-c4cccc([C@]5(c6nncn6C)C[C@H](OC)C5)c4)c(=O)c3[nH]2)CC1 [Compound T099, 6-(3-((1r,3r)-3-methoxy-1-(4-methyl-4H-1,2,4-triazol-3-yl)cyclobutyl)phenyl)-2-(((1-(methoxymethyl)cyclopropyl)amino)methyl)-4-(trifluoromethyl)-1,6-dihydro-7H-pyrrolo[2,3-c]pyridin-7-one]"
9,< 50 nM,"COCC1(NCc2cc3c(C(F)(F)F)cn(-c4cccc([C@]5(c6nncn6C)C[C@@H](OC)C5)c4)c(=O)c3[nH]2)CC1 [Compound T100, 6-(3-((1s,3s)-3-methoxy-1-(4-methyl-4H-1,2,4-triazol-3-yl)cyclobutyl)phenyl)-2-(((1-(methoxymethyl)cyclopropyl)amino)methyl)-4-(trifluoromethyl)-1,6-dihydro-7H-pyrrolo[2,3-c]pyridin-7-one]"
10,< 50 nM,"C[C@H]1CCCN(Cc2cc3c(C(F)(F)F)cn(-c4cc(F)cc([C@]5(c6nncn6C)C[C@@H](C)C5)c4)c(=O)c3[nH]2)C1 [Compound T101, 6-(3-fluoro-5-((1s,3R)-3-methyl-1-(4-methyl-4H-1,2,4-triazol-3-yl)cyclobutyl)phenyl)-2-(((S)-3-methylpiperidin-1-yl)methyl)-4-(trifluoromethyl)-1,6-dihydro-7H-pyrrolo[2,3-c]pyridin-7-one]"
11,< 50 nM,"Cn1cnnc1C1(c2cccc(-n3cc(C(F)(F)F)c4cc(CN5CC6CC5CC6(F)F)[nH]c4c3=O)c2)CCC1 (stereo not shown) [Compound T105, 2-[(5,5-difluoro-2-azabicyclo[2.2.1]heptan-2-yl)methyl]-6-[3-[1-(4-methyl-1,2,4-triazol-3-yl)cyclobutyl]phenyl]-4-(trifluoromethyl)-1H-pyrrolo[2,3-c]pyridin-7-one]"
12,< 50 nM,"CO[C@H]1CCN(Cc2cc3c(C(F)(F)F)cn(-c4cccc(C5(c6nncn6C)CCC5)c4)c(=O)c3[nH]2)C[C@H]1F [Compound T108, 2-(((3R,4S)-3-fluoro-4-methoxypiperidin-1-yl)methyl)-6-(3-(1-(4-methyl-4H-1,2,4-triazol-3-yl)cyclobutyl)phenyl)-4-(trifluoromethyl)-1,6-dihydro-7H-pyrrolo[2,3-c]pyridin-7-one]"
13,< 50 nM,"C[C@H]1CN(Cc2cc3c(C(F)(F)F)cn(-c4cccc(C5(c6nncn6C)CCC5)c4)c(=O)c3[nH]2)CCC1(F)F [Compound T110, 2-[[(3S)-4,4-difluoro-3-methyl-1-piperidyl]methyl]-6-[3-[1-(4-methyl-1,2,4-triazol-3-yl)cyclobutyl]phenyl]-4-(trifluoromethyl)-1H-pyrrolo[2,3-c]pyridin-7-one]"
